16 molecules from patent US8211916B2, “N- and O-substituted 4-[2-(diphenylmethoxy)-ethyl]-1-[(phenyl)methyl]piperidine analogs and methods of treating CNS disorders therewith” (Wayne State University, priority 2000, dated 2012) can be followed below.

In one data set the target is T1, rat SERT (Rattus norvegicus, UniProt P31652).
T1 construct: from tissue; host or cells: rat striatum (membranes)
Put plainly: Rat SERT binding, [3H]citalopram, striatal membranes.

The next data set addresses rat DAT (Rattus norvegicus, UniProt P23977). Put plainly: Rat DAT binding, [3H]Win 35,428, striatal membranes. The note with it: for NET/DAT / SERT/DAT: Table 4, binding selectivity.
In data set [1] the target is T2, Norepinephrine (NET) Transporter (Rattus norvegicus, UniProt Q63380).
T2 construct: and norepinephrine Transporters in Rat Striatum; from tissue
T2 sequence (Q63380 1-617): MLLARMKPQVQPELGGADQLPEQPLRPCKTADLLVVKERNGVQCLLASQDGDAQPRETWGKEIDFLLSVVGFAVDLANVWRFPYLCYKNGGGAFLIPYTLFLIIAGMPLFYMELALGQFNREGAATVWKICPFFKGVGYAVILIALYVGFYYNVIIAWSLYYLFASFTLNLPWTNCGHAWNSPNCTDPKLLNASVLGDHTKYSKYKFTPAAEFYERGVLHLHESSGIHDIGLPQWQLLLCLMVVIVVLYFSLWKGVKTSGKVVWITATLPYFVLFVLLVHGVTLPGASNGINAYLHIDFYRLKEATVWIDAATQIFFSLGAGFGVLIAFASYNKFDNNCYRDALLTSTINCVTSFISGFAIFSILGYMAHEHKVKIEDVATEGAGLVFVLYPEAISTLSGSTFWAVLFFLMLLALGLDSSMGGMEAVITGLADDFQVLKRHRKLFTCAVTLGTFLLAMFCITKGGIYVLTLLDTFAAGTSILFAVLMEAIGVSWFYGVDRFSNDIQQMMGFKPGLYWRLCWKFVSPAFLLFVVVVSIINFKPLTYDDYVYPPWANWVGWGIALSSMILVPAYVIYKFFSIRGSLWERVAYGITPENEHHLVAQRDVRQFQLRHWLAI
Put plainly: NET binding, [3H]nisoxetine.

Another data set deals with T3, DAT (Rattus norvegicus, UniProt P23977).
T3 construct: from tissue; host or cells: rat striatum
T3 sequence (P23977 whole entry): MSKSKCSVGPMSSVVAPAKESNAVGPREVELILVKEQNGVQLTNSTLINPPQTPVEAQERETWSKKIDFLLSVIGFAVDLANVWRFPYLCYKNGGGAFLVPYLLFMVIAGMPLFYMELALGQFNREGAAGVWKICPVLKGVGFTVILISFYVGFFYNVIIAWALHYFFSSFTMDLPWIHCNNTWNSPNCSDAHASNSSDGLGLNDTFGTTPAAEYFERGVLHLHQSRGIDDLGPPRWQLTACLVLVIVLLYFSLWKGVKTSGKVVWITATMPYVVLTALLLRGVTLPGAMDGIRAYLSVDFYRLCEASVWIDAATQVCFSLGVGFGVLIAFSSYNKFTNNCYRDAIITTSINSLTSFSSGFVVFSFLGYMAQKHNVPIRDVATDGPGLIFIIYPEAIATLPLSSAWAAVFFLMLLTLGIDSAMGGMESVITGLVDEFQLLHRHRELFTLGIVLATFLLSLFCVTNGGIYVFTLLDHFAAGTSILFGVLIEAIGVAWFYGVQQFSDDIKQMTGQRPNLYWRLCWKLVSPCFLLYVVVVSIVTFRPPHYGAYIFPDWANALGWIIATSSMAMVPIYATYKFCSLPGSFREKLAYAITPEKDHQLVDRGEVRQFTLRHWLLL
Put plainly: Uptake of [3H]DA by DAT, rat striatum. The note with it: [3H]DA uptake, rat striatum; read-out: Ki (DAT), inhibition of DA uptake. The class given is biochemical. An excerpt:
(§1) Transporter assays. The affinity of test compounds in binding to rat DAT and in inhibiting monoamine uptake was monitored as described by us previously. […] Rat cerebral cortex was used for assessing uptake of [^3H]serotonin by SERT and hippocampus for uptake of [^3H]NE by NET. […] At lease five triplicate concentrations of each test compound were studied, spaced evenly around the IC50 value. The latter was estimated by nonlinear computer curve-fitting procedures and converted to Ki with the Cheng-Prusoff equation.

The next data set addresses T4, NET (Rattus norvegicus, UniProt Q63380).
T4 construct: from tissue; host or cells: rat hippocampus
Put plainly: Uptake of [3H]NE by NET, rat hippocampus. The class given is biochemical. The note with it: [3H]NE uptake, read-out: Ki (NET), inhibition of NE uptake.
Source text: as §1

Data set [2] addresses T5, dopamine transporter (DAT) (Rattus norvegicus, UniProt P23977). Put plainly: biochemical.
Data set [3] addresses T5, dopamine transporter (DAT). The settings on record: for [3H]DA/DAT Binding: Table 4, uptake/binding ratio.
Data set [4] in a line: Stability of free base on storage. The settings on record: room temperature. The class given is physicochemical. As for the experimental part: To a solution of oxalyl chloride ([…], […]) in CH2Cl2 (3 mL) cooled to −78° C. was added dropwise 108 mg dimethylsulfoxide (1.38 mmol, 3 equiv). The mixture was stirred for 10 min and a solution of 236 mg racemic trans-3-hydroxy-4-[2-(diphenylmethoxy)ethyl]-1-[(4-fluorophenyl)methyl]piperidine (0.46 mmol) in CH2Cl2 (1 mL) was added dropwise. […] […]; H, 5.92; N, 2.76.

The mark [5] stands for this setting: Table 5, rat striatum, read-out: NET, IC50, nM [3H]nisoxetine.
The mark [6] stands for this setting: Table 3, read-out: NET, IC50, nM [3H]nisoxetine.

Broadly, the IC50 is the concentration that gives 50% inhibition. Usually Ki stands for a measure of affinity in units of concentration, obtained from inhibition or displacement.

The structures appear in SMILES notation. Read-outs that look alike come from different tables or passages of the source.

T5 sequence (P23977 whole entry): as above
Chain of rat DAT (P23977 whole entry): as above
T1 sequence (P31652 whole entry): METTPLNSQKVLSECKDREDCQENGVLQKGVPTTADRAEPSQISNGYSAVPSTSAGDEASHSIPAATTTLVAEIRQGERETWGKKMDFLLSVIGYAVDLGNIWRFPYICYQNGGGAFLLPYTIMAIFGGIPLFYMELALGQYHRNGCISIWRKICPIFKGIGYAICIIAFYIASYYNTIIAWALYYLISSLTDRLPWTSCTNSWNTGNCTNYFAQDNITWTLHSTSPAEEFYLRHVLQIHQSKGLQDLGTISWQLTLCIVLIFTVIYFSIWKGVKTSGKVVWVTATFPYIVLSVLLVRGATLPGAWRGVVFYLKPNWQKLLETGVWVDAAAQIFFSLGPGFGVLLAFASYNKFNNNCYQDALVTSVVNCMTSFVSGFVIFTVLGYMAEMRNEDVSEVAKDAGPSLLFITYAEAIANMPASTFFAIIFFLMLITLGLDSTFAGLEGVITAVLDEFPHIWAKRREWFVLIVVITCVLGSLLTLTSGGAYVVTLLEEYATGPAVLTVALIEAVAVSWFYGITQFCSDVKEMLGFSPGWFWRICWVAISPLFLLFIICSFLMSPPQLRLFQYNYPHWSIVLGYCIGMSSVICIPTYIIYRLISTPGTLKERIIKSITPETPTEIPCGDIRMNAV
T4 sequence (Q63380 1-617): as the sequence (Q63380 1-617) above
Description for rat DAT: (§2) Briefly, rat striatal membranes were incubated with radioligand and inhibitor for 2 h on ice in a sodium phosphate buffer at a final Na^+ concentration of 30 nM, pH 7.4, at room temperature. The assays were terminated by filtration through glass fiber filtermats (Wallac, Inc., Gaithersburg, Md.), presoaked in 0.05% (v/v) polyethyleneimine, with a MACH3-96 Tomtec harvester (Wallac, Inc.). Filters were assayed for radioactivity in a Microbeta Plus liquid scintillation counter (Wallac, Inc.).
Description for rat SERT: as §2

`Oc1cccc(CN2CCC(CCOC(c3ccccc3)c3ccccc3)CC2)c1` [Example 3-OH, 4-[2-(diphenylmethoxy)ethyl]-1-[(3-hydroxyphenyl)methyl]piperidine]: the IC50 at rat SERT (Table 1, read-out: SERT, IC50) is 984 ± 94 nM; at rat DAT (read-out: DAT, IC50, Table 1) it was 14.3 ± 3.7 nM; in data set [1] (Table 1, read-out: NET, IC50) it was 678 ± 13 nM.
As to `O[C@H](CN[C@H]1CC[C@@H](C(c2ccccc2)c2ccccc2)NC1)c1ccc(F)cc1` [Example 4b, (S)-2-[(3S,6S)-6-benzhydrylpiperidin-3-ylamino)-1-(4-fluorophenyl)ethanol], the Ki at DAT was 152 nM; on NET, 306 nM.
As to `OC1CN(Cc2ccc(F)cc2)CCC1CCOC(c1ccccc1)c1ccccc1` (racemic) [Example 16, racemic trans-3-hydroxy-4-[2-diphenylmethoxy)ethyl]-1-[(4-fluorophenyl)methyl]piperidine], the IC50 came out at 1110 nM on rat SERT, 5.96 ± 1.26 nM on rat DAT and 637 ± 114 nM in data set [1] (setting [5]).
For `c1ccc(CN2CCC(CCNC(c3ccccc3)c3ccccc3)CC2)cc1` [Example 9], the IC50 at rat SERT (Table 1, read-out: SERT, IC50) was found to be 1560 ± 208 nM; in data set [2] it was 20.6 ± 2.5 nM; in data set [1] (Table 1, read-out: NET, IC50), 2620 nM.
Regarding `Fc1ccc(CN[C@H]2CC[C@H](C(c3ccccc3)c3ccccc3)NC2)cc1` (racemic) [(±)-7b, trans-2-diphenylmethyl-5-(4-fluorobenzylamino)piperidine], in data set [3], the “[3H]DA/DAT Binding” value is reported as 0.5. In addition, the IC50 at rat SERT is 1330 nM. The molecule also came in with an IC50 in data set [2] of 106 ± 10 nM. On rat DAT, the IC50 came out at 212 ± 20 nM, the SERT/DAT selectivity ratio is reported as 6.28, the NET/DAT is recorded as 21 and the SERT/DAT turned out to be 6.28. In data set [1] (setting [6]), the IC50 stood at 4470 nM.
For the molecule `CCC(=O)OC1CN(Cc2ccc(F)cc2)CCC1CCOC(c1ccccc1)c1ccccc1` (racemic) [Example 17], the IC50 at rat SERT (Table 5, rat striatum, read-out: SERT, IC50, nM [3H]citalopram) is 178 nM; on rat DAT, 583 ± 81 nM; in data set [1], 35800 nM.
For `O[C@@H](CN[C@H]1CC[C@@H](C(c2ccccc2)c2ccccc2)NC1)c1ccc(F)cc1` [Example 4a, (R)-2-[(3S,6S)-6-benzhydrylpiperidin-3-ylamino)-1-(4-fluorophenyl)ethanol], the Ki amounted to 236 nM at DAT and 1440 nM on NET.
Regarding `Fc1ccc(CN2CCC(CCOC(c3ccccc3)c3ccccc3)CC2)cc1F` [Example 2, 4-[2-(Diphenylmethoxy)ethyl]-1-[(3,4-difluorophenyl)methyl]piperidine], the IC50 at rat SERT (Table 1, read-out: SERT, IC50) is 1220 ± 139 nM; in data set [2], 12 ± 1.62 nM; at rat DAT (read-out: DAT, IC50, Table 1) it was 10.1 ± 0.9 nM. Moreover, on rat DAT, the SERT/DAT selectivity ratio is given as 122.
In the case of `Fc1ccc(CNC2CCC(C(c3ccccc3)c3ccccc3)NC2)cc1` (racemic) [(±)-7a, 2-diphenylmethyl-5-(4-fluorobenzylamino)piperidine], in data set [3], the “[3H]DA/DAT Binding” value amounted to 0.03. The molecule also registered an IC50 at rat SERT of 2810 nM. The IC50 in data set [2] is 28.9 ± 2.5 nM. In addition, at rat DAT, the IC50 came to 30 ± 0.5 nM, the SERT/DAT selectivity ratio was determined as 93.7, the NET/DAT was found to be 44.9 and the SERT/DAT is 93.7. In addition, the IC50 in data set [1] (setting [6]) came out at 1350 nM.
`Fc1ccc(CN2CCC(CCNC(c3ccccc3)c3ccccc3)CC2)cc1F` [Example 8, 4-[2-((Diphenylmethyl)amino)ethyl]-1-[(3,4-difluorophenyl)methyl]piperidine]: the IC50 at rat SERT (Table 1, read-out: SERT, IC50) stood at 1590 ± 160 nM; in data set [2], 10.7 ± 1.8 nM; in data set [1] (Table 1, read-out: NET, IC50), 1030 nM.
On to `CS(=O)(=O)Nc1ccc(CN2CCC(CCOC(c3ccccc3)c3ccccc3)CC2)cc1` [Example 6, 4-[2-(Diphenylmethoxy)ethyl]-1-[((4-methylsulfonylamino)phenyl)methyl]piperidine], for which the IC50 came to 586 ± 29.2 nM at rat SERT (Table 1, read-out: SERT, IC50); 9.7 ± 1.2 nM in data set [2]; 26.6 ± 1.4 nM on rat DAT (read-out: DAT, IC50, Table 1).
Take `N#Cc1ccc(CN2CCC(CCOC(c3ccccc3)c3ccccc3)CC2)cc1` [Example 4, 4-[2-(Diphenylmethoxy)ethyl]-1-[(4-cyanophenyl)methyl]piperidine]: the IC50 on rat SERT (read-out: SERT, IC50) turned out to be 2280 ± 470 nM; in data set [2], 4.58 ± 0.8 nM; at rat DAT (read-out: IC50 for the dopamine transporter), 3.7 nM. The SERT/DAT selectivity ratio on rat DAT is on record as 615.
`Fc1ccc(CN2CCC(CNOC(c3ccccc3)c3ccccc3)CC2)cc1` [Example 7, 4-[((2-Diphenylmethoxy)amino)methyl]-1-[(4-fluorophenyl)methyl]piperidine]: the IC50 at rat SERT (Table 1, read-out: SERT, IC50) was found to be 626 ± 33 nM; in data set [2] it was 16.6 ± 2.8 nM; at rat DAT (read-out: DAT, IC50, Table 1), 34.4 ± 4.2 nM; in data set [1], 691 ± 68 nM.
For the molecule `Ic1ccc(CN2CCC(CCOC(c3ccccc3)c3ccccc3)CC2)cc1` [Example 19, 4-[2-(diphenylmethoxy)ethyl]-1-[(4-iodophenyl)methyl]piperidine], the IC50 on rat SERT (Table 1, read-out: SERT, IC50) came out at 2920 ± 432 nM; at rat DAT (read-out: DAT, IC50, Table 1), 0.96 ± 0.16 nM; in data set [1] (Table 1, read-out: NET, IC50), 1150 ± 116 nM.
With `Fc1ccc(CN2CCC(CNCC(c3ccccc3)c3ccccc3)CC2)cc1` [Example 11, 4-[[2-(Diphenyl)ethyl]aminomethyl]-1-[(4-fluorophenyl)methyl]piperidine], in data set [3], the “[3H]DA/DAT Binding” value was 2.5. The IC50 in data set [3] (read-out: [3H]DA Inhibition, IC50, Table 2, rat synaptosome tissue) turned out to be 49.6 ± 7.2 nM; on rat SERT (Table 1, read-out: SERT, IC50), 137 ± 45.6 nM; at rat DAT (read-out: DAT, IC50, Table 1), 19.7 ± 1.4 nM; in data set [1] (Table 1, read-out: NET, IC50), 1110 nM. Further, the “affinity for the SERT” value on rat SERT (in words) is given as “moderate affinity”. Further, the NET/DAT on rat DAT is 5.6. The SERT/DAT on rat DAT is 6.9. On rat DAT (in words), the “affinity for the DAT” value is listed as “strong affinity”.
In the case of `O=C1CN(Cc2ccc(F)cc2)CCC1CCOC(c1ccccc1)c1ccccc1` (racemic) [Example 18, racemic 3-Keto-4-[2-(diphenylmethoxy)ethyl]-1-[(4-fluorophenyl)methyl]piperidine], the results for the IC50 (at rat SERT; at rat DAT; in data set [1] (setting [5])) were 7750 nM, 99 ± 18 nM and 6300 nM, respectively. The “stability of the free base” value in data set [4] is reported as “decomposes at room temperature”.
